Source: PMC8448819, “The Arabidopsis MIK2 receptor elicits immunity by sensing a conserved signature from phytocytokines and microbes” (Nature Communications, 2021)
Values joined by “and” are separate entries in the source; they are usually repeats but may differ in a detail not shown here. Equal entries are not always repeated. “Also recorded” adds a separate entry of the source. Where two headings read alike, the source gives them in different places.

Experiments:
[1] = system: MPK3, MPK4 and MPK6 phosphorylation, mik2-1 seedlings; experiment: MAPK assay (α-pERK1/2 immunoblot), mik2-1; assay type: in vivo, Arabidopsis thaliana; parameters: dose or concentration left out as unconfirmed; conditions: mik2-1, α-pERK1/2 immunoblot
rbohD mutant seedlings = experiment: ROS assay (luminol), rbohD; assay type: in vivo, Arabidopsis thaliana
Experimental: (§1) ROS burst was determined by a luminol-based assay. […] Then, ddH2O was replaced by 200 µL of reaction solution containing 50 µM of luminol, and 10 µg/mL of horseradish peroxidase (Sigma-Aldrich) supplemented with or without 100 nM or 1 μM peptide. Luminescence was measured immediately after adding the solution with a luminometer (Glomax 20/20n, Promega) with a one-second interval for 15 min. The total values of ROS production were indicated as means of the relative light units (RLUs).

p35S::Aequorin seedlings = assay type: in vivo, Arabidopsis thaliana
[2] = system: bik1/pbl1 mutant seedlings; experiment: ROS assay (luminol), bik1/pbl1; assay type: in vivo, Arabidopsis thaliana; conditions: bik1/pbl1, 100 nM SCOOP12 or 1 µM FocSCOOPL
Experimental: as §1

mik2 mutant seedlings = experiment: ROS assay (luminol), mik2 mutants; assay type: in vivo, Arabidopsis thaliana; conditions: mik2 mutants, 100 nM SCOOPs or 1 µM FocSCOOPL
Experimental: as §1

MIK2-BAK1 association = experiment: Co-immunoprecipitation MIK2-BAK1; assay type: cell-based, Arabidopsis thaliana; conditions: protoplasts, MIK2-HA and BAK1-FLAG, 15 min, co-IP
Experimental: For co-IP assays in protoplasts, protoplasts were co-transfected with pHBT-35S::MIK2-HA and pHBT-35S::BAK1-FALG or pHBT-35S::SERK4-FLAG at 50 μg DNA for 500 μL protoplasts at the density of 2 × 10^5/mL for each sample and were incubated for 12 h. After treatment with 1 µM SCOOP peptides for 15 min, samples were collected by centrifugation at 200 × g for 2 min and lysed in 300 μL IP buffer (20 mM Tris-HCl, pH 7.5, 100 mM NaCl, 1 mM EDTA, 2 mM DTT, 10% [v/v] Glycerol, 0.5% [v/v] Triton X-100 and protease inhibitor cocktail from Sigma) by vortexing. After centrifugation at 10,000 × g for 10 min at 4 °C, 30 μL of supernatant was collected for input controls. The remaining supernatant was pre-incubated with protein-G-agarose beads at 4 °C for 1 h with gentle shaking at […] on a rocker. IP was carried out with α-FLAG agarose for 3 h at 4 °C. Beads were collected by 500 × g centrifugation for 2 min and washed three times with washing buffer (20 mM Tris-HCl, pH 7.5, 100 mM NaCl, 1 mM EDTA, 0.1% [v/v] Triton X-100) and once with 50 mM Tris-HCl, pH 7.5. Immunoprecipitated proteins and input proteins were analyzed by immunoblotting with α-HA (1:3000; Roche, Cat # 12013819001) or α-FLAG antibodies (1:3000; Sigma-Aldrich, Cat # A8592).
For co-IP assays in transgenic seedlings, leaves of 4-week-old pMIK2::MIK2-GFP transgenic plants were hand-inoculated with 1 μM SCOOP10^B or SCOOP12 and were treated for 30 min, followed by total protein isolation with extraction buffer (50 mM Tris-HCl, pH 7.5, 150 mM NaCl, 1% [v/v] NP-40 and 1:200 protease inhibitor cocktail from Sigma). Co-IP was carried out the same as for co-IP with protoplasts except that GFP-Trap agarose beads (Chromotek) were used instead. Immunoprecipitated proteins and input proteins were analyzed by immunoblotting with α-GFP (1:3500; Roche, Cat # 11814460001) or α-BAK1 antibodies (1:2000)[64].

[3] = system: bak1-4 and bak1-5/serk4 mutant seedlings; experiment: ROS assay (luminol), coreceptor mutants; assay type: in vivo, Arabidopsis thaliana
Experimental: as §1

MIK2^ECD [4] = biological target: T1, MIK2^ECD (Arabidopsis thaliana, UniProt Q8VZG8); experiment: Surface plasmon resonance (SPR); assay type: binding; conditions: CM5 chip with immobilized MIK2^ECD
T1 construct: MIK2^ECD (residues 1–707) and BAK1^ECD (residues 1–220) were amplified by PCR from Col-0 cDNA; 6xHIS (C); made in house; host or cells: High Five insect cells (Bac-to-Bac baculovirus system)

[5] = system: Arabidopsis WT (Col-0) seedlings; assay type: in vivo, Arabidopsis thaliana
MIK2^ECD [6] = biological target: T1, MIK2^ECD; experiment: Isothermal titration calorimetry (ITC); assay type: binding; conditions: 25 °C, pH 7.0; 600 μM peptide into 30 μM MIK2^ECD
MIK2^ECD-BAK1^ECD = experiment: Gel filtration of MIK2^ECD and BAK1^ECD; assay type: biochemical, Arabidopsis thaliana; conditions: 0.1 mg peptide, 10 mM Bis-Tris pH 6.0, 100 mM NaCl, on ice 1 h
Experimental: The ECD domains of MIK2 (MIK2^ECD) and BAK1 (BAK1^ECD) fused with a 6 × HIS tag at the C-terminus were expressed using the Bac-to-Bac baculovirus expression system (Invitrogen) in High Five cells at 22 °C[25]. One liter of cells (1.8 × 10^6 cells per mL cultured in the medium from Expression Systems) was infected with 20 mL baculovirus and the media were harvested after 48 h of infection. The secreted MIK2^ECD-6 × HIS and BAK1^ECD-6 × HIS proteins were purified using Ni-NTA (Novagen) and size-exclusion chromatography (Hiload 200, GE Healthcare) in buffer containing 10 mM Bis-Tris pH 6.0 and 100 mM NaCl.
The purified MIK2^ECD proteins (0.5 mg for each) and BAK1^ECD proteins (0.2 mg for each) were incubated together with SCOOP12 or SCOOP12^SS/AA (0.1 mg for each) in a buffer containing 10 mM Bis-Tris, pH 6.0, 100 mM NaCl on ice for 1 h. Then, each of the mixtures was separated by gel filtration (Hiload 200, GE Healthcare) with a flow rate of 0.8 mL/min and an injection volume of […] at 4 °C, and the peak fractions were separated on SDS-PAGE followed by Coomassie blue (CBB) staining.

[7] = system: MPK3, MPK4 and MPK6 phosphorylation, WT seedlings; experiment: MAPK assay (α-pERK1/2 immunoblot), WT; assay type: in vivo, Arabidopsis thaliana
Experimental: (§2) Ten-day-old seedlings grown vertically on ½MS plates were transferred to ddH2O overnight for recovery. Then, ddH2O was replaced by 100 nM peptides for the indicated time.

[8] = system: mik2-1 and mik2-2 mutant seedlings; assay type: in vivo, Arabidopsis thaliana; conditions: individual values, one per line
[9] = system: Arabidopsis WT seedling roots; experiment: Microscopy of root browning and root meristems, WT; assay type: in vivo, Arabidopsis thaliana
[10] = system: MYB51 promoter, pMYB51::GUS seedling roots; experiment: Histochemical GUS staining, pMYB51::GUS; assay type: in vivo, Arabidopsis thaliana; conditions: pMYB51::GUS seedlings, 1 µM, 3 h
From the text: Stained samples were fixed with a 3:1 ethanol:acetic acid solution overnight and cleared by lactic acid and photographed with the Olympus SZX10 stereoscopic microscope equipped with DP27 camera.

[11] = system: WRKY30, WRKY33 and CYP81F2 expression, mik2 seedlings; experiment: RT-qPCR of defense genes, mik2 mutants; assay type: in vivo, Arabidopsis thaliana
[12] = system: MPK3, MPK4 and MPK6 phosphorylation, bak1-4 and bak1-5/serk4 seedlings; experiment: MAPK assay (α-pERK1/2 immunoblot), coreceptor mutants; assay type: in vivo, Arabidopsis thaliana
Experimental: as §2

[13] = system: WRKY30, WRKY33 and CYP81F2 expression, WT seedlings; experiment: RT-qPCR of defense genes, WT; assay type: in vivo, Arabidopsis thaliana
Arabidopsis WT seedlings = experiment: ROS assay (luminol), WT seedlings; assay type: in vivo, Arabidopsis thaliana; conditions: WT seedlings
Experimental: as §1

[14] = system: mik2-1 roots and leaf protoplasts; experiment: TAMRA-SCOOP12 binding in vivo, mik2-1 (confocal); parameters: species or system Arabidopsis thaliana; conditions: mik2-1, 100 nM TAMRA-SCOOP12, 5 min
[15] = system: WT roots and leaf protoplasts; experiment: TAMRA-SCOOP12 binding and competition in vivo, WT (confocal); parameters: species or system Arabidopsis thaliana; conditions: 100 nM TAMRA-SCOOP12, 5 min

T1 sequence (Q8VZG8 44-707): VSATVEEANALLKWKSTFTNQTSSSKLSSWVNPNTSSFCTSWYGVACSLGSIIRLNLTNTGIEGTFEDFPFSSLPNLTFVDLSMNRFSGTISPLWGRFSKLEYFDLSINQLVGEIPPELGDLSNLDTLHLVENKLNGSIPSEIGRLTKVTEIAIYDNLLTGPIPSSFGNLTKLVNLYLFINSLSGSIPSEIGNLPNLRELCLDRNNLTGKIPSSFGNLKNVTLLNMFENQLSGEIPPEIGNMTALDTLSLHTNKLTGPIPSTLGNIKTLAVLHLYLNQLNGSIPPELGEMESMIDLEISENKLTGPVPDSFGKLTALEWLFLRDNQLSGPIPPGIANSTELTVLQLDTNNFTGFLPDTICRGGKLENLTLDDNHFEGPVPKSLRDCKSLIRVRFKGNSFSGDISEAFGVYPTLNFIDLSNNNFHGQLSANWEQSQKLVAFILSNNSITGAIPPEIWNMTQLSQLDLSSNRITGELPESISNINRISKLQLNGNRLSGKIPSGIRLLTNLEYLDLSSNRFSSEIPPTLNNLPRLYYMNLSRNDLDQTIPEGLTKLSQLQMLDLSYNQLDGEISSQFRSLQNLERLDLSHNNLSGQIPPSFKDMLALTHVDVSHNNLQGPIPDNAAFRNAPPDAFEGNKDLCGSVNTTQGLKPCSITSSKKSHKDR

## MAQSWLKEESSSSHSERAGGR [FocSCOOPL, SCOOPL peptide from F. oxysporum f. sp. conglutinans strain Fo5176]
[1]
  MAPK activation in mik2: blocked in mik2-1
rbohD mutant seedlings
  ROS production in rbohD: compromised in the bak1-5/serk4, bik1/pbl1, and rbohD mutants
p35S::Aequorin seedlings; in vivo
  concentration inducing cytosolic Ca^2+ increase: 100 nM
  cytosolic Ca^2+ increase: triggers the cytosolic Ca^2+ increase
[2]
  ROS production in bik1/pbl1: compromised in the bak1-5/serk4, bik1/pbl1, and rbohD mutants
mik2 mutant seedlings
  ROS production in mik2: blocked in mik2
MIK2-BAK1 association
  MIK2-BAK1 association in protoplasts: induces MIK2-BAK1 association
[3]; bak1-4, 100 nM SCOOP12
  ROS production in bak1-4: blocked in mik2 (h), and in bak1-4
[3]; bak1-5/serk4, 100 nM SCOOP12 or 1 µM FocSCOOPL
  ROS production in bak1-5/serk4: compromised in the bak1-5/serk4

## MGSGASGPVRSAQASQAGGR [SCOOP12SS/AA, Alanine substitutions on two conserved serine residues in the SxS motif of SCOOP12]
MIK2^ECD [4]
  binding to MIK2^ECD, SPR: nearly no binding
[5]; Supplementary Fig. 5d, e
  root growth inhibition of SCOOP12^SS/AA: abolished its activities to inhibit root growth through MIK2
MIK2^ECD [6]
  binding to MIK2^ECD, ITC: No binding was detected
MIK2^ECD-BAK1^ECD
  MIK2^ECD-BAK1^ECD dimerization: unable to induce the dimerization between MIK2^ECD and BAK1^ECD

## RPPTAPIYLPPSKSRKGKGP [SCOOP13, synthesized SCOOP peptide corresponding to the SxS motif]
p35S::Aequorin seedlings; Ca^2+ and ROS bursts, 100 nM
  ROS production, SCOOP13 and 14 relative to other SCOOPs, and Ca^2+ bursts: relatively weak activities for Ca^2+ and ROS bursts
[7]; Supplementary Fig. 3i
  MAPK activation in shoots and roots: triggered the MAPK activation in both shoots and roots
[8]; mik2-1
  Root length (Fig. 3e): 22.796 and 23.072 and 22.084 and 23.813 and 22.472 and 23.316 and 25.007 and 26.178 and 24.196 and 22.194
[8]; mik2-2
  Root length (Fig. 3e): 23.916 and 28.782 and 22.331 and 28.855 and 26.162 and 23.502 and 23.674 and 22.828 and 26.36 and 25.263 and 22.35
[9]; WT seedlings, prolonged treatment
  root browning: led to brown roots
[9]; WT, 5-day-old seedlings, 1 µM, 48 h, PI staining
  root meristem distortion: distorted root meristems
[10]
  MYB51 promoter activity in roots: induced the promoter activities of MYB51
[5]; in vivo
  root growth inhibition: inhibited root growth to various degrees, with SCOOP10^B and 13 being the most active; also recorded: potent in inhibiting root growth
[11]; mik2-1, repeat 1
  CYP81F2 expression (Fig. 3i): 0.33
[11]; mik2-1, repeat 2
  CYP81F2 expression (Fig. 3i): 0.51
[11]; mik2-1, repeat 3
  CYP81F2 expression (Fig. 3i): 2.20
[11]; mik2-1, repeat 4
  CYP81F2 expression (Fig. 3i): 5.48
[11]; mik2-2, repeat 1
  CYP81F2 expression (Fig. 3i): 3.17
[11]; mik2-2, repeat 2
  CYP81F2 expression (Fig. 3i): 4.70
[11]; mik2-2, repeat 3
  CYP81F2 expression (Fig. 3i): 4.82
[11]; mik2-2, repeat 4
  CYP81F2 expression (Fig. 3i): 7.05
[11]; mik2 mutants, 1 µM, 1 h, RT-qPCR
  WRKY30, WRKY33 and CYP81F2 expression: abolished in mik2 mutants
[12]; bak1-4
  MAPK activation in bak1-4: reduced in bak1-4
[12]; bak1-5/serk4
  MAPK activation in bak1-5/serk4: substantially blocked in bak1-5/serk4
[13]; 1 µM, 1 h, RT-qPCR
  WRKY30, WRKY33 and CYP81F2 expression: upregulation
[13]; repeat 1
  CYP81F2 expression (Fig. 3i): 41.34
[13]; repeat 2
  CYP81F2 expression (Fig. 3i): 47.71
[13]; repeat 3
  CYP81F2 expression (Fig. 3i): 93.81
[13]; repeat 4
  CYP81F2 expression (Fig. 3i): 121.82
Arabidopsis WT seedlings; repeat 1
  ROS production, total luminescence (Fig. 2h): 1290342
Arabidopsis WT seedlings; repeat 2
  ROS production, total luminescence (Fig. 2h): 1525381
Arabidopsis WT seedlings; repeat 3
  ROS production, total luminescence (Fig. 2h): 622461

## TAMRA-MGSGASGPVRSSQSSQAGGR [TAMRA-SCOOP12, red fluorescent tetramethylrhodamine (TAMRA)-labeled SCOOP12 peptides at its N-terminus]
[14]
  red fluorescent labelling of root tips and leaf protoplasts: not in mik2-1
[7]; Supplementary Fig. 5c, MIK2-dependent
  MAPK activation by labelled peptide vs SCOOP12: slightly lesser extent than SCOOP12
[5]; Supplementary Fig. 5a, b, MIK2-dependent
  bioactivity of labelled peptide: root growth inhibition vs SCOOP12: slightly lesser extent than SCOOP12
[15]
  red fluorescent labelling of root tips and leaf protoplasts: Red fluorescent signals were detected
